Like-named read-outs stand apart in the source and are kept apart here. One block for each compound: values may come before it.
Columns and labels:
HCK = HCK (Homo sapiens, UniProt P08631); assay: KINOMEscan competition binding assay
ABL-1-nonphosphorolated [1] = molecular target: T1, ABL-1-nonphosphorolated (Homo sapiens, UniProt P00519); settings: ABL1
LCK = LCK (Homo sapiens, UniProt P06239); assay: KINOMEscan competition binding assay
CSF1R = CSF1R (Homo sapiens, UniProt P07333); assay: biochemical
FYN = FYN (Homo sapiens, UniProt P06241); assay: KINOMEscan competition binding assay
DDR1 = DDR1 (Homo sapiens, UniProt Q08345); assay: KINOMEscan competition binding assay
KIT = KIT (Homo sapiens, UniProt P10721); assay: KINOMEscan competition binding assay
FRK = FRK (Homo sapiens, UniProt P42685); assay: KINOMEscan competition binding assay
SRC = SRC (Homo sapiens, UniProt P12931); assay: KINOMEscan competition binding assay
PIK4CB = molecular target: T2, PIK4CB (Homo sapiens, UniProt Q9UBF8); assay: KINOMEscan competition binding assay
T2 construct: purchased Eurofins DiscoverX Corporation (KINOMEscan); host or cells: E. coli BL21-derived host (T7 phage) or HEK-293
Experimental: (§1) The ligand-bound beads were blocked with excess biotin and washed with blocking buffer (SeaBlock (Pierce), 1% BSA, 0.05% Tween 20, 1 mM DTT) to remove unbound ligand and to reduce nonspecific binding. […] Kds were determined using an 11-point 3-fold compound dilution series with three DMSO control points.
(§2) Each was a final volume of 0.02 ml.

FGR = molecular target: T3, FGR (Homo sapiens, UniProt P09769); assay: KINOMEscan competition binding assay
T3 construct: purchased Eurofins DiscoverX Corporation (KINOMEscan); host or cells: E. coli BL21-derived host (T7 phage) or HEK-293
Experimental: as §1, §2

DDR2 = molecular target: T4, DDR2 (Homo sapiens, UniProt Q16832); assay: KINOMEscan competition binding assay
T4 construct: purchased Eurofins DiscoverX Corporation (KINOMEscan); host or cells: E. coli BL21-derived host (T7 phage) or HEK-293
T4 sequence (Q16832 22-855): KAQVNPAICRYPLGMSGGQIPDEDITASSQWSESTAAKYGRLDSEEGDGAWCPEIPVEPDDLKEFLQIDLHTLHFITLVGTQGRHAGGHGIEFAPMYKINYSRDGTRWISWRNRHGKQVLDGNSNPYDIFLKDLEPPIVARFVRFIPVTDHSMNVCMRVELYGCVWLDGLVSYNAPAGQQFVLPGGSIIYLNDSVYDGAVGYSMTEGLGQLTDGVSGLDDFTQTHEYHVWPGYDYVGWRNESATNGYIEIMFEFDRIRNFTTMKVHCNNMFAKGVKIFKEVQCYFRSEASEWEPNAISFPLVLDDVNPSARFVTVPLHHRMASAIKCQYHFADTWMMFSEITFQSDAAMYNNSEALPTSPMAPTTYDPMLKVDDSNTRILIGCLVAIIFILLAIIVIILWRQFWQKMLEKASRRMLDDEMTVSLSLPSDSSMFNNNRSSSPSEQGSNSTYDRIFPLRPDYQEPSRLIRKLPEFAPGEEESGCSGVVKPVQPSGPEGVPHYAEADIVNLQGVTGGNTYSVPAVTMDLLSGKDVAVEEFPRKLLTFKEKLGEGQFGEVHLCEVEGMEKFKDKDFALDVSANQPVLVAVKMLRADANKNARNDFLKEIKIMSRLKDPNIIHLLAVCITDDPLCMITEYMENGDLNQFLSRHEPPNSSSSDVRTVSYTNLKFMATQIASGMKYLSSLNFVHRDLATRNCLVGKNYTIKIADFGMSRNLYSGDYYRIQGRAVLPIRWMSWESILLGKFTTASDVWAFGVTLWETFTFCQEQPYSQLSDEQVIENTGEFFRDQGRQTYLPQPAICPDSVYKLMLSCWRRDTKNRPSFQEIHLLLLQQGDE
Experimental: as §1, §2

PDGFR-α = molecular target: T5, PDGFR-α (Homo sapiens, UniProt P16234); assay: KINOMEscan competition binding assay
T5 construct: purchased Eurofins DiscoverX Corporation (KINOMEscan); host or cells: E. coli BL21-derived host (T7 phage) or HEK-293
Experimental: as §1, §2

RET = molecular target: T6, RET (Homo sapiens, UniProt P07949); assay: KINOMEscan competition binding assay
T6 construct: purchased Eurofins DiscoverX Corporation (KINOMEscan); host or cells: E. coli BL21-derived host (T7 phage) or HEK-293
Experimental: as §1, §2

LYN = molecular target: T7, LYN (Homo sapiens, UniProt P07948); assay: KINOMEscan competition binding assay
T7 construct: purchased Eurofins DiscoverX Corporation (KINOMEscan); host or cells: E. coli BL21-derived host (T7 phage) or HEK-293
Experimental: as §1, §2

VEGFR2 = molecular target: T8, VEGFR2 (Homo sapiens, UniProt P35968); assay: KINOMEscan competition binding assay
T8 construct: purchased Eurofins DiscoverX Corporation (KINOMEscan); host or cells: E. coli BL21-derived host (T7 phage) or HEK-293
Experimental: as §1, §2

PDGFR-β = molecular target: T9, PDGFR-β (Homo sapiens, UniProt P09619); assay: KINOMEscan competition binding assay
T9 construct: purchased Eurofins DiscoverX Corporation (KINOMEscan); host or cells: E. coli BL21-derived host (T7 phage) or HEK-293
Experimental: as §1, §2

ABL-1-nonphosphorolated [2] = molecular target: T1, ABL-1-nonphosphorolated; assay: biochemical; settings: read-out: Compound Activity Remaining at 1 μM (%)
FLT4 = FLT4 (Homo sapiens, UniProt P35916); assay: KINOMEscan competition binding assay
[3] = molecular target: T10, phosphatidylinositol 5-phosphate 4-kinase type-2 gamma (PI42C) (Homo sapiens, UniProt Q8TBX8); assay: KINOMEscan competition binding assay
T10 construct: purchased Eurofins DiscoverX Corporation (KINOMEscan); host or cells: E. coli BL21-derived host (T7 phage) or HEK-293
T10 sequence (Q8TBX8 1-421): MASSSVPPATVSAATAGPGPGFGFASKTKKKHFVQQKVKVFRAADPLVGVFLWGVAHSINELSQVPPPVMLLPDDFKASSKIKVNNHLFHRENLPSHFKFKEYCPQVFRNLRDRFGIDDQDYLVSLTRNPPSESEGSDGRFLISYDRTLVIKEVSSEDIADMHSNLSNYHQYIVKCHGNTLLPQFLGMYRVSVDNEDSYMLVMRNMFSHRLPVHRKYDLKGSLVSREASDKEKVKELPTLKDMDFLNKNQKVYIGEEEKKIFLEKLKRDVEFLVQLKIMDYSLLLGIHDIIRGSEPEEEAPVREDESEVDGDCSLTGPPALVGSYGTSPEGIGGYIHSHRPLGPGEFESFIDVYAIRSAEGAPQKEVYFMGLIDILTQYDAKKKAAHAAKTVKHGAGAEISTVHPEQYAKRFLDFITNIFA
Experimental: The ligand-bound beads were blocked with excess biotin and washed with blocking buffer (SeaBlock (Pierce), 1% BSA, 0.05% Tween 20, 1 mM DTT) to remove unbound ligand and to reduce nonspecific binding. […] Test compounds were prepared as 111× stocks in 100% DMSO. Kds were determined using an 11-point 3-fold compound dilution series with three DMSO control points.
as §2

[4] = read-out: Compound Activity Remaining at 1 μM (%)

Chain of KIT (P10721 26-976): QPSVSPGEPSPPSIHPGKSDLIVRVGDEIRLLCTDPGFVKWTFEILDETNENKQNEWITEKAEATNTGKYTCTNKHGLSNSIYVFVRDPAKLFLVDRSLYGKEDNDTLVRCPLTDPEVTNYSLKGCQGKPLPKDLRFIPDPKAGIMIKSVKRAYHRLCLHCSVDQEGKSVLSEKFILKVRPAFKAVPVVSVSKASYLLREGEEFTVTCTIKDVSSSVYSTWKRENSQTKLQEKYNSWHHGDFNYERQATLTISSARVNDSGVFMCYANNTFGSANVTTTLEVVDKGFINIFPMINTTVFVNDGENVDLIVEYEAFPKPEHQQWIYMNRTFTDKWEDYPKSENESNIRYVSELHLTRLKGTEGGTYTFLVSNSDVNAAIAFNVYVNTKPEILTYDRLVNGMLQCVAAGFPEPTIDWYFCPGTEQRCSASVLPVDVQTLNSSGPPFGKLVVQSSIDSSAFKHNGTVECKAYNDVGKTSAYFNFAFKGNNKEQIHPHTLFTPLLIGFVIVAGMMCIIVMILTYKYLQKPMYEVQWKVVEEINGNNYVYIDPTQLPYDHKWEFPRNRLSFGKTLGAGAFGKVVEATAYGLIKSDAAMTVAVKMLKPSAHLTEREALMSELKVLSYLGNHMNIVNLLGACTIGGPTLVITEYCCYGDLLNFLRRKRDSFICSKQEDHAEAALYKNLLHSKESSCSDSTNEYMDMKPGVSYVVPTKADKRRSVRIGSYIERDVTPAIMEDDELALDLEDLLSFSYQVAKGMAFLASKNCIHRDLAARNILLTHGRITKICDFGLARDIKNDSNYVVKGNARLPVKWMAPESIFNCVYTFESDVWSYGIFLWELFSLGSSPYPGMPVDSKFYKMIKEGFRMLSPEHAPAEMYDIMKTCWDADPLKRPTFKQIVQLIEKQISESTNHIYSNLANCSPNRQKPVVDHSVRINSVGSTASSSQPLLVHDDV
T2 sequence (Q9UBF8 whole entry): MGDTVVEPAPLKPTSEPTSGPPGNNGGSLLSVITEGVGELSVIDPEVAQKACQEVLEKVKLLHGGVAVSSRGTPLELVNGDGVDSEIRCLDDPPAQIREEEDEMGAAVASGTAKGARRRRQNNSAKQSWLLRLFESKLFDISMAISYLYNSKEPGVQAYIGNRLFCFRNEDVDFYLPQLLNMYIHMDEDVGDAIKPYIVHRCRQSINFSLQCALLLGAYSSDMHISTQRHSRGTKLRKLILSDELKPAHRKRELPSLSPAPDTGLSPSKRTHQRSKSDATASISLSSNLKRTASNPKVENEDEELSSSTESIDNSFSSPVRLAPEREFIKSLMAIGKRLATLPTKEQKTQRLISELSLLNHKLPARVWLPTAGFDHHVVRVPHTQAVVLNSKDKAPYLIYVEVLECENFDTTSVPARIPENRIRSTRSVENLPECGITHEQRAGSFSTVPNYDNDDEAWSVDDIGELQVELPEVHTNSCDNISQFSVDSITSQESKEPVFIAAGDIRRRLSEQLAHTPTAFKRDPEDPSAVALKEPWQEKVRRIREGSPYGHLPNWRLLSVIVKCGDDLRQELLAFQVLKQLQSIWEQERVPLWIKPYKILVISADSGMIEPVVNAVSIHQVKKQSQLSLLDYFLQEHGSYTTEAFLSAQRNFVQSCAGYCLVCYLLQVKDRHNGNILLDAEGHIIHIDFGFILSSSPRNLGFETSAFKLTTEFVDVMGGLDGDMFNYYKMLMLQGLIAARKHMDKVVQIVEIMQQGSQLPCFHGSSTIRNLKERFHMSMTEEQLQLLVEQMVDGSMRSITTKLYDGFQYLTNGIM
T9 sequence (P09619 33-1106): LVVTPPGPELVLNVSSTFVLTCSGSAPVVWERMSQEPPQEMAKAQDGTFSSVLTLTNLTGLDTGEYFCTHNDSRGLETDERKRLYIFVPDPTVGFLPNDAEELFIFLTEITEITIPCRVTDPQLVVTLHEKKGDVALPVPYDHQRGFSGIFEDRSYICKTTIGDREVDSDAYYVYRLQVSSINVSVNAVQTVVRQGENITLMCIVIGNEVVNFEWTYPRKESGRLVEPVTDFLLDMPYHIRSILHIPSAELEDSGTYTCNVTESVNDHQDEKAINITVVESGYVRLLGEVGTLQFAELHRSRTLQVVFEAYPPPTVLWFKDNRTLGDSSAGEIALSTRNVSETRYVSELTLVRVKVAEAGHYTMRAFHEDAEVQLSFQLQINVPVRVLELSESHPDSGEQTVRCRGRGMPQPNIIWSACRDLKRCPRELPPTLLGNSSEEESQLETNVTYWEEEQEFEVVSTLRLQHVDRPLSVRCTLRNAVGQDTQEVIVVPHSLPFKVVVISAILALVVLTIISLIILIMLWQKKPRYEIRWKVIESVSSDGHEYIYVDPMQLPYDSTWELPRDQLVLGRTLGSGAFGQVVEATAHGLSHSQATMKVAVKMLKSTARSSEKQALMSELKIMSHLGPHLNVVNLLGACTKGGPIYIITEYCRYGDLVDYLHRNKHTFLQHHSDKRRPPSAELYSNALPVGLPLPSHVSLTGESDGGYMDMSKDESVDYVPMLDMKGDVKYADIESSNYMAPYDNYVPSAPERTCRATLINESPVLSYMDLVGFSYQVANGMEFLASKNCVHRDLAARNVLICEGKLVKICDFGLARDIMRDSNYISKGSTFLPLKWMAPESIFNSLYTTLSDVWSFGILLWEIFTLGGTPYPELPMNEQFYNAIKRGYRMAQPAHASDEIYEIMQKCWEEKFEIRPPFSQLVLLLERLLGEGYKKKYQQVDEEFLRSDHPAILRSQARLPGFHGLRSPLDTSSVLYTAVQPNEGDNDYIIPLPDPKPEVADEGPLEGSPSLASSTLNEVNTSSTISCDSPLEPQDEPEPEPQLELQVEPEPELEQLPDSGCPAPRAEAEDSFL
T5 sequence (P16234 24-1089): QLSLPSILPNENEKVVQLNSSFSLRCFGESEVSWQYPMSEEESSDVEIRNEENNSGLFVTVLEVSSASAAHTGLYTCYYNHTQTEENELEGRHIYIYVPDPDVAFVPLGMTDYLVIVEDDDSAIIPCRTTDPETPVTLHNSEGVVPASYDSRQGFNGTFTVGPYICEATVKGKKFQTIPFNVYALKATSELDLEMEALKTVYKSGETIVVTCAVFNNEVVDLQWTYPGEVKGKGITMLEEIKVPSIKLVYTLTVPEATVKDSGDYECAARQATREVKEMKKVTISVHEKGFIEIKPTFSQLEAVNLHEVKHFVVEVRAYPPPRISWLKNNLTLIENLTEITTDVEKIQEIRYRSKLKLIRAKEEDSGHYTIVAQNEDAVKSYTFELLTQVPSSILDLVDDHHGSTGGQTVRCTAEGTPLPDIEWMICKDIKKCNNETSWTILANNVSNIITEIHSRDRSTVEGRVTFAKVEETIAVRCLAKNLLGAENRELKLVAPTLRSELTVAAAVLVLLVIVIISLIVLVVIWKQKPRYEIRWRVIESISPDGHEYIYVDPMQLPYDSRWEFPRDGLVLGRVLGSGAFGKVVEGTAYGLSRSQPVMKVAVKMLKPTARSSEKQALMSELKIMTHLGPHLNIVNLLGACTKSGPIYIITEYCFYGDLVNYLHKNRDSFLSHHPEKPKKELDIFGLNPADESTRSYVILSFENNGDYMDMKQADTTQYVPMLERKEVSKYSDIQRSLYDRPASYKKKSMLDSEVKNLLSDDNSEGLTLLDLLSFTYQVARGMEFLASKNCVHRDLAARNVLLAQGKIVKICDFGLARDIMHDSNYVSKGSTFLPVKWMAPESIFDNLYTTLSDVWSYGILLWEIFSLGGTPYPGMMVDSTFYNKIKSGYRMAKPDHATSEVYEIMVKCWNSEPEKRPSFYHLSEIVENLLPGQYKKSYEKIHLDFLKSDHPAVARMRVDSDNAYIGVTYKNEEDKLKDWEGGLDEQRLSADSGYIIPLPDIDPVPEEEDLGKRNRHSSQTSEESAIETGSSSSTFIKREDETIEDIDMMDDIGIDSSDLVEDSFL
T7 sequence (P07948 whole entry): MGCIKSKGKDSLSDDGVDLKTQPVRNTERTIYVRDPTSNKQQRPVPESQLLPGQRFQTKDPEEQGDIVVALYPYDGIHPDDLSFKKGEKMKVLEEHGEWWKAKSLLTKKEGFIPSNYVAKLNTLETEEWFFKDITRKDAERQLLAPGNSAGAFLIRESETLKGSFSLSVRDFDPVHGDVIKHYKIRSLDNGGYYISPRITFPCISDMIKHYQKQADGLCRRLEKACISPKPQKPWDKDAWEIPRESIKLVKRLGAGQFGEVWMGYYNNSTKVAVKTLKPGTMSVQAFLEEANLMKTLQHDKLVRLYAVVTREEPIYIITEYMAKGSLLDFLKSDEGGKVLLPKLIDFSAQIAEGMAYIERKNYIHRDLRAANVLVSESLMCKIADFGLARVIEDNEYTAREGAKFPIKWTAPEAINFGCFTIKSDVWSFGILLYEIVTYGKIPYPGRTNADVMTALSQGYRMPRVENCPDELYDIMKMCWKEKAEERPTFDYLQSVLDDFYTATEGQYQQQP
Chain of LCK (P06239 whole entry): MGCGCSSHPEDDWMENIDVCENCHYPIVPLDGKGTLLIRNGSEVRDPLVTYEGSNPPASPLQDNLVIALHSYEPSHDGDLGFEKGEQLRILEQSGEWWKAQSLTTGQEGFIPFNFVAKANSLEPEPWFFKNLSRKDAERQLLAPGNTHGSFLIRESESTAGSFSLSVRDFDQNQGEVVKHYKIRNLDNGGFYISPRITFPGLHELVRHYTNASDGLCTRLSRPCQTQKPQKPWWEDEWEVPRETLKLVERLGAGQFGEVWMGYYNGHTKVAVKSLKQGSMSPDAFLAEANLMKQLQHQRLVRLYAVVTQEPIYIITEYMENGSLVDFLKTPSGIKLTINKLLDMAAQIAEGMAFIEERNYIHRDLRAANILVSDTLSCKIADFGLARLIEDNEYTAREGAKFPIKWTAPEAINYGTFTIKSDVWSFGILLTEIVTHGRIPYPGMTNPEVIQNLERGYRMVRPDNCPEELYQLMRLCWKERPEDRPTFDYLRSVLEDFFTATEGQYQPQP

- Kd (HCK): 36 nM
- remaining binding at 1 µM (HCK; [4]): 3.3%
- kinase found to be inhibited (ABL-1-nonphosphorolated [1]): inhibited
- Kd (LCK): 22 nM
- remaining binding at 1 µM (LCK; [4]): 1.1%
- Kd (CSF1R): 6.1 nM
- remaining activity at 1 µM (CSF1R; [4]): 0.7%
- Kd (FYN): 55 nM
- remaining binding at 1 µM (FYN; [4]): 9.7%
- Kd (DDR1): 3.5 nM
- remaining binding at 1 µM (DDR1; [4]): 0.2%
- Kd (KIT): 4.7 nM
- remaining binding at 1 µM (KIT; [4]): 0%
- Kd (FRK): 11 nM
- remaining binding at 1 µM (FRK; [4]): 5.3%
- Kd (SRC): 130 nM
- remaining binding at 1 µM (SRC; [4]): 6.4%
- Kd (PIK4CB): 150 nM
- remaining binding at 1 µM (PIK4CB; 1 μM compound): 3.8%
- Kd (FGR): 92 nM
- remaining binding at 1 µM (FGR; 1 μM compound): 21%
- Kd (DDR2): 19 nM
- remaining binding at 1 µM (DDR2; 1 μM compound): 1.8%
- Kd (PDGFR-α): 4 nM
- remaining binding at 1 µM (PDGFR-α; 1 μM compound): 0.35%
- Kd (RET): 19 nM
- remaining binding at 1 µM (RET; 1 μM compound): 3.9%
- Kd (LYN): 24 nM
- remaining binding at 1 µM (LYN; 1 μM compound): 7.3%
- Kd (VEGFR2): 15 nM
- remaining binding at 1 µM (VEGFR2; 1 μM compound): 0.25%
- Kd (PDGFR-β): 0.82 nM
- remaining binding at 1 µM (PDGFR-β; 1 μM compound): 0%
- remaining activity at 1 µM (ABL-1-nonphosphorolated [2]): 3.3%
- Kd (FLT4): 18 nM
- remaining binding at 1 µM (FLT4; [4]): 12%
Compound: COc1ccc(-c2cncc(N[C@@H](C)c3cccc(NC(=O)c4cncc(C)c4)c3)n2)cc1OC [Compound B]

Compound: imatinib [Compound A, reference compound]
- kinase found to be inhibited [3]: inhibited
- Compound Activity Remaining at 1 μM (%) (KIT; KIT, 1 μM compound): 0.5%
- Compound Activity Remaining at 1 μM (%) (PIK4CB; 1 μM compound): 59%
- Compound Activity Remaining at 1 μM (%) (FGR; 1 μM compound): 70%
- Compound Activity Remaining at 1 μM (%) (DDR2; 1 μM compound): 0.8%
- Compound Activity Remaining at 1 μM (%) (PDGFR-α; 1 μM compound): 0.95%
- Kd (RET): > 10000 nM
- Compound Activity Remaining at 1 μM (%) (RET; 1 μM compound): 98%
- Compound Activity Remaining at 1 μM (%) (LYN; 1 μM compound): 30%
- Compound Activity Remaining at 1 μM (%) (VEGFR2; 1 μM compound): 70%
- Compound Activity Remaining at 1 μM (%) (PDGFR-β; 1 μM compound): 0.15%
- Kd (FLT4; FLT4): > 10000 nM
- Compound Activity Remaining at 1 μM (%) (FLT4; FLT4, 1 μM compound): 87%
